Source: the supplement of paper PMC11003180

Key:
Experiment in all cases: drug sensitivity score (DSS) from 5-dose viability curve (DSS (area-based score, 0 = no response)); higher = more sensitive (stronger viability inhibition); extreme values may be limits of the assay
[1] = tested on: MDCK wild-type - doxycycline; settings: doxycycline: none; 72 h
In short: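 Parental MDCK cells without doxycycline were dispensed at 2000 cells/well onto pre-spotted 384-well plates. The plates held an oncology library of 528 drugs at five doses (1-10,000 nM) and were incubated 72 h at 37 °C. Viability was read as CellTiter-Glo luminescence and scaled per plate between vehicle and positive controls. Drug sensitivity scores came from dose-response curve fits in the Breeze pipeline.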

[2] = tested on: MDCK wild-type + doxycycline; settings: doxycycline: 10 ng/mL; 72 h
In short: (§1)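 After 72 h at 37 °C on 384-well plates pre-spotted with 528 oncology drugs at five doses (1-10,000 nM), parental and doxycycline-inducible MDCK cells were assessed; both lines had been given 10 ng/mL doxycycline in the medium before seeding at 2000 cells/well. Viability was taken from CellTiter-Glo luminescence scaled per plate to vehicle and positive controls, and drug sensitivity scores were derived from dose-response fits in the Breeze pipeline.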

[3] = tested on: MDCK p60AmotL2-inducible + doxycycline (p60AmotL2 expressing); settings: doxycycline: 10 ng/mL; 72 h
In short: as §1

| Structure (SMILES) | drug sensitivity score [1] | drug sensitivity score [2] | drug sensitivity score [3] |
| --- | --- | --- | --- |
| Nc1ccn([C@@H]2O[C@H](CO)[C@@H](O)C2(F)F)c(=O)n1 [Gemcitabine] | 2.2 | 5.5 | 7.7 |
| CC(=O)Nc1ccc(C(=O)Nc2ccccc2N)cc1 [Tacedinaline] | 0 | 0 | 0 |
| Nc1cc(COc2c(Cl)cc(C[C@H](N)C(=O)O)cc2Cl)c2oc(-c3ccccc3)nc2c1 [JPH203] | 0 | 0 | 0 |
| O=C(O)c1ccc2c(c1)nc(Nc1cccc(Cl)c1)c1ccncc12 [Silmitasertib] | 0 | 1.4 | 1.6 |
| C[C@@H](Oc1cc(-n2cnc3ccc(CN4CCN(C)CC4)cc32)sc1C(N)=O)c1ccccc1C(F)(F)F | 29.5 | 35.1 | 32.1 |
| COCCNCc1ccc(-c2cc3nccc(Oc4ccc(NC(=S)NC(=O)Cc5ccc(F)cc5)cc4F)c3s2)nc1 [Glesatinib] | 0 | 0 | 0.4 |
| N[C@@H]1CCCN(c2c(/C=C3\SC(=O)NC3=O)cccc2-c2ccccc2)C1 [AZD1208] | 0 | 0 | 1 |
| Cc1ccc(NC(=O)c2ccc(CN3CC[C@H](N(C)C)C3)c(C(F)(F)F)c2)cc1Nc1nccc(-c2cncnc2)n1 [Bafetinib] | 0 | 0 | 0 |
| O=C(Nc1nc2cccc(-c3ccc(CN4CCS(=O)(=O)CC4)cc3)n2n1)C1CC1 [Filgotinib] | 0 | 0 | 0 |
| O[C@H](C[C@H]1c2c(F)cccc2-c2cncn21)[C@H]1CC[C@H](O)CC1 [GDC-0919] | 0 | 0 | 0 |
| CC(C)C[C@H](NC(=O)[C@H](CCc1ccccc1)NC(=O)CN1CCOCC1)C(=O)N[C@@H](Cc1ccccc1)C(=O)N[C@@H](CC(C)C)C(=O)[C@@]1(C)CO1 [Carfilzomib] | 21.2 | 24.6 | 25.7 |
| C[C@H](Nc1ncnc2nc[nH]c12)c1cc2cccc(Cl)c2c(=O)n1-c1ccccc1 [Duvelisib] | 0 | 0 | 0 |
| N#Cc1ccc2[nH]c(O)c(-c3ccc(CN4CCOCC4)cn3)c2c1 [AZD-1080] | 0 | 0 | 0 |
| CCCCCOC(=O)Nc1nc(=O)n([C@@H]2O[C@H](C)[C@@H](O)[C@H]2O)cc1F [Capecitabine] | 5.1 | 7 | 7.1 |
| Cc1nc(-c2cn3c(n2)-c2ccc(-c4cnn(C(C)(C)C(N)=O)c4)cc2OCC3)n(C(C)C)n1 [Taselisib] | 0 | 0.3 | 6.3 |
| CC(=O)O[C@H]1C(=O)[C@@]2(C)[C@H]([C@H](OC(=O)c3ccccc3)[C@]3(O)C[C@H](OC(=O)[C@H](O)[C@@H](NC(=O)c4ccccc4)c4ccccc4)C(C)=C1C3(C)C)[C@]1(OC(C)=O)CO[C@@H]1C[C@@H]2O [Paclitaxel] | 15.8 | 19.4 | 21.8 |
| C[C@@H](Nc1cc(F)cc(F)c1)c1cc(C(=O)N(C)C)cc2c(=O)cc(N3CCOCC3)oc12 [AZD-8186] | 0 | 0 | 1.4 |
| CCN1CCN(c2ccc(Nc3cc(N(C)C(=O)Nc4c(Cl)c(OC)cc(OC)c4Cl)ncn3)cc2)CC1 [Infigratinib] | 0 | 0 | 0 |
| C[C@@H]1CN(C(=O)c2ccc(NC(=O)c3cc(O[C@H](C)c4c(Cl)ccc(F)c4Cl)c(N)nn3)cc2)C[C@H](C)N1 [Ensartinib] | 0 | 0 | 1.4 |
| Cc1cc(Nc2nc(N[C@@H](C)c3ncc(F)cn3)ncc2Cl)[nH]n1 [AZD1480] | 0 | 0 | 0.2 |
| Nc1nc2[nH]cc(CCc3ccc(C(=O)N[C@@H](CCC(=O)O)C(=O)O)cc3)c2c(=O)[nH]1 [Pemetrexed] | 5.5 | 5.3 | 7.1 |
| CC[C@H](CO)Nc1nc(NCc2ccccc2)c2ncn(C(C)C)c2n1 [Seliciclib] | 0 | 1.2 | 2.4 |

| Structure (SMILES) | drug sensitivity score [1] | drug sensitivity score [2] | drug sensitivity score [3] |
| --- | --- | --- | --- |
| CCC(C)n1ncn(-c2ccc(N3CCN(c4ccc(OCC5COC(Cn6cncn6)(c6ccc(Cl)cc6Cl)O5)cc4)CC3)cc2)c1=O (configuration not stated) [Itraconazole] | 7.9 | 7.7 | 10.7 |
| O=C(CCCCCCC(=O)Nc1ccc([C@H]2O[C@@H](CSc3nc(-c4ccccc4)c(-c4ccccc4)o3)C[C@@H](c3ccc(CO)cc3)O2)cc1)NO [Tubacin] | 0 | 0 | 0 |
| Nc1nc(F)nc2c1ncn2[C@@H]1O[C@H](CO)[C@@H](O)[C@@H]1O [Fludarabine] | 0 | 0 | 0 |
| Cc1ccc(C(=O)N(CCCN)[C@@H](c2oc3cc(Cl)ccc3c(=O)c2Cc2ccccc2)C(C)C)cc1 | 15.3 | 5.8 | 8.8 |
| Nc1nc(Nc2ccc3c(c2)CC[C@@H](N2CCCC2)CC3)nn1-c1cc2c(nn1)-c1ccccc1CCC2 [BGB324] | 5.1 | 5 | 5.8 |
| NC(=O)/C(=C/n1cnc(-c2cc(C(F)(F)F)cc(C(F)(F)F)c2)n1)c1cncnc1 [Eltanexor] | 19.6 | 21.8 | 19.9 |
| COc1ccc(CCc2nc3cc(-c4c(C)noc4C)ccc3n2C[C@H](C)N2CCOCC2)cc1Cl [SGC-CBP30] | 0 | 2.7 | 4.3 |
| C1=N/C2=N/c3ccc(OCCN4CCCC4)c(c3)COC/C=C/COCc3cccc(c3)C(=C1)N2 [Pacritinib] | 10.1 | 9.3 | 10 |
| CC(C)Oc1ccc(-c2nn([C@@H](C)c3oc4ccc(F)cc4c(=O)c3-c3cccc(F)c3)c3ncnc(N)c23)cc1F [TGR-1202] | 0 | 2.1 | 3.9 |
| CCOc1ccccc1-n1c(C(C)N2CCN(C(=O)COc3ccc(Cl)cc3)CC2)nc2ccccc2c1=O (configuration not stated) [Erastin] | 0 | 0 | 0 |
| CCNC(=O)c1noc(-c2cc(C(C)C)c(O)cc2O)c1-c1ccc(CN2CCOCC2)cc1 [Luminespib] | 15.8 | 18.4 | 20.7 |
| COc1cc(N2CCN(C)CC2)ccc1Nc1nccc(-c2cn(C)c3cnccc23)n1 [AZ191] | 0 | 2.5 | 2.2 |
| CN(C)CCCOc1ccc(-c2ccc3ncc4c(c3c2)n(C2CCOCC2)c(=O)n4C)cn1 [AZD0156] | 0 | 0 | 1 |
| O=C(O)CC[C@H]1CC[C@@](c2cc(F)ccc2F)(S(=O)(=O)c2ccc(Cl)cc2)CC1 [MK-0752] | 0 | 0 | 0 |
| CCc1c(C(=O)C(N)=O)c2c(OCC(=O)O)cccc2n1Cc1ccccc1 [Varespladib] | 0 | 0 | 0 |
| CC[C@@H]1[C@H](F)C(=O)N[C@@H]1COc1nccc2cc(C(N)=O)c(OC)cc12 | 0 | 0.8 | 0.2 |
| CCCN(CCC)C(=O)C1=Cc2ccc(-c3ccc(C(=O)N4CCCC4)cc3)cc2N=C(N)C1 [Motolimod] | 0 | 0.8 | 2.5 |
| COc1cc2ncnc(Nc3ccc(F)c(Cl)c3)c2cc1NC(=O)/C=C/CN1CCCCC1 [Dacomitinib] | 5.3 | 8.4 | 19.3 |
| NC(=O)c1cccc(-c2cccc(OC(=O)NC3CCCCC3)c2)c1 [URB597] | 0 | 0 | 0 |
| Cc1ccc(=O)n(-c2ccccc2)c1 [Pirfenidone] | 0 | 0 | 0 |
| Cc1ccc(NS(=O)(=O)c2cccc(C#N)c2)c2[nH]cc(C#N)c12 [E7820] | 14.5 | 19.9 | 20.4 |
| CCC1=C[C@@H]2CN(C1)Cc1c([nH]c3ccccc13)[C@@](C(=O)OC)(c1cc3c(cc1OC)N(C)[C@H]1[C@@](O)(C(=O)OC)[C@H](OC(C)=O)[C@]4(CC)C=CCN5CC[C@]31[C@@H]54)C2 [Vinorelbine] | 29.8 | 30.2 | 34.2 |
